Assays:
[1] = physiological conditions; demetalation e.g. by apo-transferrin; cited from earlier work
[2] = Stability / storability of the ligands as labeling precursors; type: physicochemical
[3] = test system: embryonated ostrich egg; assay: Administration in ostrich egg and PET/CT examination (in ovo test); settings: in vivo in the incubated egg, approx. 10 MBq in PBS injected intravascularly
Method: The accumulation in the liver of the compounds according to the invention can be examined in a so-called ovo test, i.e. in vivo in an incubated ostrich egg. […] 2. Administration in Ostrich Egg and PET/CT Examination To carry out an intravascular injection in an embryonic egg, it is first necessary to find an […] blood vessel. This is done using a light-intensive […] lamp (Tempo No. 119, Brecker Ltd. & Co. KG, Ruethen, Germany or Powerlux […], Lyon Technologies Inc., Chula Vista, Calif., USA), with which the egg is illuminated through the eggshell in similar manner to a diaphanoscopy. After locating a large-caliber vessel, an approximately 2.5×5 cm rectangular piece is machined from the approximately 2 mm thick egg shell (Dremel® 3000, Dremel Europe-Bosch Powertools B.V., Breda, the Netherlands). Particular care must be taken to maintain the intactness of the inner membrane of the eggshell, which corresponds to the chorioallantoic membrane (CAM). After removing the eggshell lid-again using the […] lamp-the yolk vessel is punctured with a narrow 27G cannula and this is fixed to the eggshell with adhesive strips. The access thus created now allows both CT contrast media and radiopharmaceuticals to be injected via a short length of plastic tubing (Smiths MedicalTM 800/100/100 Smiths, Smiths Medical International Ltd, Ashford, Great Britain). […]

Row | stability of the ligand (storable as precursor for labeling with 68Ga or 64Cu) [2] | Compound | stability of the 68Ga complex of the ligand [1] | other results
1 | – | CCc1cccc(CC)c1NC(=O)CN(CC(=O)O)CC(=O)O [EHIDA] | do not form sufficiently stable ^68Ga complexes | –
2 | – | CCOc1ccc(C[C@@H](CN(CCN(CC(=O)O)CC(=O)O)CC(=O)O)N(CC(=O)O)CC(=O)O)cc1 [EOB-DTPA] | do not form sufficiently stable ^68Ga complexes | –
3 | stable | CCOc1ccc(CNC2CN(Cc3ccc(OCC)cc3O)CCN(Cc3ccc(OCC)cc3O)C2)c(O)c1 [TEOHB-DAZA, tris-N,N′,N″(4-ethoxy-2-hydroxybenzyl)-1,4-diazepan-6-amine] | – | –
4 | stable | COc1ccc(CNC2CN(Cc3ccc(OC)cc3O)CCN(Cc3ccc(OC)cc3O)C2)c(O)c1 [TMeOHB-DAZA, tris-N,N′,N″(4-methoxy-2-hydroxybenzyl)-1,4-diazepan-6-amine] | – | –
5 | – | CCOc1ccc(CNC2CN(Cc3ccc(OCC)cc3[O-])CCN(Cc3ccc(OCC)cc3[O-])C2)c([O-])c1.[68Ga+3] [^68Ga-[TEOHB-DAZA], ^68Ga[tris-N,N′,N″(4-ethoxy-2-hydroxybenzyl)-1,4-diazepan-6-amine]] | – | accumulation in the liver [3]: almost exclusive accumulation in the liver

Reference: US11701439B2, “DAZA chelators as ligands in liver imaging” (X-NUCLEAR DIAGNOSTICS GMBH, priority 2017, dated 2023)
